Like-named read-outs stand apart in the source and are kept apart here. Positions of bridges follow the written chain, without caps; N, C: chain ends. Residues, ends and D or L forms follow the SMILES beside them.
How the values were obtained:
[1] = tested on: human plasma (coagulation system); type: biochemical; conditions: pH 7.4
thrombin = type: biochemical; conditions: 10μM
ASFV SY18 strain = type: cell-based, African swine fever virus

In the case of `CC[C@H](C)[C@@H]1NC(=O)CNC(=O)[C@H](CO)NC(=O)[C@@H]2CSSC[C@@H](C(=O)N[C@@H](Cc3ccc(O)cc3)C(=O)O)NC(=O)[C@H](CCCCN)NC(=O)[C@@H]3CSSC[C@H](NC(=O)[C@H](CCC(N)=O)NC(=O)[C@H](Cc4ccc(O)cc4)NC(=O)[C@H](CCC(N)=O)NC(=O)[C@H](CC(N)=O)NC(=O)[C@H](Cc4ccccc4)NC(=O)[C@@H]4CCCN4C(=O)[C@@H](NC(=O)CNC(=O)[C@H](Cc4ccc(O)cc4)NC(=O)CN)CSSC[C@H](NC(=O)[C@H](Cc4ccc(O)cc4)NC(=O)CNC(=O)CNC(=O)[C@H](CCCCN)NC(=O)[C@H](Cc4ccc(O)cc4)NC(=O)CNC(=O)[C@H](CCCNC(=N)N)NC1=O)C(=O)N[C@@H](CCCCN)C(=O)NCC(=O)N[C@@H]([C@@H](C)O)C(=O)N[C@@H](Cc1ccccc1)C(=O)N[C@@H](CCCCN)C(=O)N[C@@H](CCC(N)=O)C(=O)N[C@@H]([C@@H](C)O)C(=O)N3)C(=O)N[C@@H](Cc1c[nH]cn1)C(=O)N[C@@H](CO)C(=O)N[C@@H](Cc1c[nH]cn1)C(=O)N2` [OPTX-1] (H-GYGCPFNQYQCHSHCSGIRGYKGGYCKGTFKQTCKCY-OH; disulfide 4-26, 11-34, 15-36 (inferred); N-terminus and C-terminus assumed), the “cytotoxicity on PAM cells” value (PAM cells) is reported as “more significant than on Vero cells”, the “cytotoxicity on Vero cells” value (Vero cells) is reported as “less cytotoxicity on Vero cells than other defensins” and the “overall cytotoxicity (Vero and PAM cells)” value (Vero cells) is reported as “relative low cytotoxicities”. For the same compound, the “anticoagulant effect (plasma recalcification time)” value [1] was “show anticoagulant effects in plasma-based coagulation assays”, the thrombin inhibitory effect (thrombin) was “the activity of thrombin was inhibited” and the “inhibition of ASFV infection/replication” value (ASFV SY18 strain; 5μM) was “inhibited ASFV infection in PAM cells”. For the same compound, the “inhibition of ASFV infection/replication” value (ASFV SY18 strain; 10μM) was “inhibited ASFV infection in PAM cells”.

— publication PMC8678048 (Frontiers in Microbiology, 2021)
